# Measurements: PubChem BioAssay AID250 (DTP/NCI, 2004)
# Several values for one entry are separate records, joined by “and”; a condition that tells them apart may be missing. Identical values can stand only once. Toxic doses and inconclusive results are not listed.
# Tested on: BDF1 mice, L1210 leukemia sc, survival T/C
# Test: NCI In Vivo Anticancer Drug Screen. Data for tumor model L1210 Leukemia (subcutaneous) in B6D2F1 (BDF1) mice
# Settings: higher = longer survival
# Outline: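 Transplantable tumor-bearing mice; survival or tumor size recorded; result = T/C, treated vs vehicle control.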
# [1] = endpoint: median survival time, dose: 23.0 mg/kg/injection, schedule: Q01DX Z (sc), vehicle: other
# [2] = endpoint: median survival time, dose: 39.0 mg/kg/injection, schedule: Q01DX Z (sc), vehicle: other
# [3] = endpoint: median survival time, dose: 65.0 mg/kg/injection, schedule: Q01DX Z (sc), vehicle: other
# [4] = endpoint: median survival time, dose: 108.0 mg/kg/injection, schedule: Q01DX Z (sc), vehicle: other
# [5] = endpoint: median survival time, dose: 180.0 mg/kg/injection, schedule: Q01DX Z (sc), vehicle: other
# [6] = endpoint: median survival time, dose: 3.0 mg/kg/injection, schedule: Q01DX Z (sc), vehicle: carboxymethylcellulose (CMC)
# [7] = endpoint: median survival time, dose: 14.0 mg/kg/injection, schedule: Q01DX Z (sc), vehicle: carboxymethylcellulose (CMC)
# [8] = endpoint: median survival time, dose: 23.0 mg/kg/injection, schedule: Q01DX Z (sc), vehicle: carboxymethylcellulose (CMC)
smiles,measurement,setting,value
CC(=O)OCC(=O)[C@@]1(O)CC[C@H]2[C@@H]3C[C@H](F)C4=CC(=O)CC[C@]4(C)[C@H]3[C@@H](O)C[C@@]21C,T/C,"endpoint: median survival time, dose: 8.4 mg/kg/injection, schedule: Q01DX Z (sc), vehicle: steriod suspending solution",100 % of control
same,T/C,"endpoint: median survival time, dose: 14.0 mg/kg/injection, schedule: Q01DX Z (sc), vehicle: steriod suspending solution",100 % of control
same,T/C,"endpoint: median survival time, dose: 23.0 mg/kg/injection, schedule: Q01DX Z (sc), vehicle: steriod suspending solution",111 % of control
same,T/C,"endpoint: median survival time, dose: 39.0 mg/kg/injection, schedule: Q01DX Z (sc), vehicle: steriod suspending solution",155 % of control
same,T/C,"endpoint: median survival time, dose: 65.0 mg/kg/injection, schedule: Q01DX Z (sc), vehicle: steriod suspending solution",155 % of control
same,T/C,"endpoint: median survival time, dose: 108.0 mg/kg/injection, schedule: Q01DX Z (sc), vehicle: steriod suspending solution",150 % of control
same,T/C,"endpoint: median survival time, dose: 180.0 mg/kg/injection, schedule: Q01DX Z (sc), vehicle: steriod suspending solution",161 % of control
Nc1n[nH]c(N)n1,T/C,"endpoint: median survival time, dose: 125.0 mg/kg/injection, schedule: Q03HX024 (sc), vehicle: none",110 % of control
same,T/C,"endpoint: median survival time, dose: 180.0 mg/kg/injection, schedule: Q03HX024 (ip), vehicle: water",116 % of control
same,T/C,"endpoint: median survival time, dose: 180.0 mg/kg/injection, schedule: Q03HX024 (sc), vehicle: water",122 % of control
same,T/C,"endpoint: median survival time, dose: 250.0 mg/kg/injection, schedule: Q03HX024 (sc), vehicle: none",120 % of control
same,T/C,"endpoint: median survival time, dose: 250.0 mg/kg/injection, schedule: Q#A X018 (sc), vehicle: none",120 % of control
same,T/C,"endpoint: median survival time, dose: 432.0 mg/kg/injection, schedule: Q01DX Z (sc), vehicle: water",104 % of control
same,T/C,"endpoint: median survival time, dose: 500.0 mg/kg/injection, schedule: Q03HX024 (ip), vehicle: water",177 % of control
same,T/C,"endpoint: median survival time, dose: 500.0 mg/kg/injection, schedule: Q03HX024 (sc), vehicle: water",166 % of control
same,T/C,"endpoint: median survival time, dose: 500.0 mg/kg/injection, schedule: Q04DX003 (sc), vehicle: none",110 % of control
same,T/C,"endpoint: median survival time, dose: 500.0 mg/kg/injection, schedule: Q#A X018 (sc), vehicle: none",160 % of control
same,T/C,"endpoint: median survival time, dose: 720.0 mg/kg/injection, schedule: Q01DX Z (sc), vehicle: water",109 % of control
same,T/C,"endpoint: median survival time, dose: 1000.0 mg/kg/injection, schedule: Q03HX024 (sc), vehicle: none",110 % of control
same,T/C,"endpoint: median survival time, dose: 1000.0 mg/kg/injection, schedule: Q04DX003 (sc), vehicle: none",110 % of control
same,T/C,"endpoint: median survival time, dose: 1000.0 mg/kg/injection, schedule: Q08DX009 (sc), vehicle: none",150 % of control
same,T/C,"endpoint: median survival time, dose: 1000.0 mg/kg/injection, schedule: Q#A X018 (sc), vehicle: none",100 % of control
same,T/C,"endpoint: median survival time, dose: 2000.0 mg/kg/injection, schedule: Q01DX Z (sc), vehicle: water",150 % of control
same,T/C,"endpoint: median survival time, dose: 2000.0 mg/kg/injection, schedule: Q04DX003 (sc), vehicle: none",115 % of control
same,T/C,"endpoint: median survival time, dose: 2000.0 mg/kg/injection, schedule: Q#A X018 (sc), vehicle: none",90 % of control
same,T/C,"endpoint: median survival time, dose: 4000.0 mg/kg/injection, schedule: Q04DX003 (sc), vehicle: none",120 % of control
same,T/C,"endpoint: median survival time, dose: 4000.0 mg/kg/injection, schedule: Q08DX009 (sc), vehicle: none",150 % of control
CN(Cc1cnc2nc(N)nc(N)c2n1)c1c(Cl)cc(C(=O)NC(CCC(=O)O)C(=O)O)cc1Br (centres undefined),T/C,"endpoint: median survival time, dose: 1.8 mg/kg/injection, schedule: Q## X Z (sc), vehicle: other",266 % of control
same,T/C,"endpoint: median survival time, dose: 3.0 mg/kg/injection, schedule: Q## X Z (sc), vehicle: other",288 % of control
same,T/C,"endpoint: median survival time, dose: 4.9 mg/kg/injection, schedule: Q01DX Z (ip), vehicle: other",111 % of control
same,T/C,"endpoint: median survival time, dose: 5.0 mg/kg/injection, schedule: Q01DX Z (sc), vehicle: other",100 % of control
same,T/C,"endpoint: median survival time, dose: 5.0 mg/kg/injection, schedule: Q## X Z (sc), vehicle: other",422 % of control
same,T/C,"endpoint: median survival time, dose: 8.3 mg/kg/injection, schedule: Q01DX Z (ip), vehicle: other",122 % of control
same,T/C,"endpoint: median survival time, dose: 8.4 mg/kg/injection, schedule: Q01DX Z (sc), vehicle: other",111 % of control
same,T/C,"endpoint: median survival time, dose: 8.4 mg/kg/injection, schedule: Q## X Z (sc), vehicle: other",100 % of control
same,T/C,"endpoint: median survival time, dose: 14.0 mg/kg/injection, schedule: Q01DX Z (sc), vehicle: other",244 % of control
same,T/C,"endpoint: median survival time, dose: 14.1 mg/kg/injection, schedule: Q01DX Z (ip), vehicle: other",122 % of control
same,T/C,[1],283 % of control and 300 % of control
same,T/C,"endpoint: median survival time, dose: 23.4 mg/kg/injection, schedule: Q01DX Z (ip), vehicle: other",283 % of control
same,T/C,"endpoint: median survival time, dose: 38.9 mg/kg/injection, schedule: Q01DX Z (ip), vehicle: other",305 % of control
same,T/C,[2],322 % of control and 338 % of control
same,T/C,"endpoint: median survival time, dose: 39.0 mg/kg/injection, schedule: Q## X Z (sc), vehicle: other",104 % of control
same,T/C,"endpoint: median survival time, dose: 64.8 mg/kg/injection, schedule: Q01DX Z (ip), vehicle: other",300 % of control
same,T/C,[3],316 % of control and 333 % of control
same,T/C,"endpoint: median survival time, dose: 65.0 mg/kg/injection, schedule: Q## X Z (sc), vehicle: other",104 % of control
same,T/C,"endpoint: median survival time, dose: 107.0 mg/kg/injection, schedule: Q01DX Z (ip), vehicle: other",244 % of control
same,T/C,[4],211 % of control and 233 % of control
same,T/C,"endpoint: median survival time, dose: 108.0 mg/kg/injection, schedule: Q## X Z (sc), vehicle: other",104 % of control
same,T/C,"endpoint: median survival time, dose: 179.0 mg/kg/injection, schedule: Q01DX Z (ip), vehicle: other",177 % of control
same,T/C,[5],166 % of control
same,T/C,"endpoint: median survival time, dose: 180.0 mg/kg/injection, schedule: Q## X Z (sc), vehicle: other",109 % of control
same,T/C,"endpoint: median survival time, dose: 300.0 mg/kg/injection, schedule: Q## X Z (sc), vehicle: other",114 % of control
same,T/C,"endpoint: median survival time, dose: 500.0 mg/kg/injection, schedule: Q## X Z (sc), vehicle: other",114 % of control
CCOC1=C(N2CC2)C(=O)C(OCC)=C(N2CC2)C1=O,T/C,[6],109 % of control
same,T/C,[7],122 % of control
same,T/C,[8],109 % of control
O=c1[nH]cc(S)c(=O)[nH]1,T/C,[1],100 % of control
same,T/C,[2],100 % of control
same,T/C,[3],100 % of control
same,T/C,[4],110 % of control
same,T/C,[5],110 % of control
same,T/C,"endpoint: median survival time, dose: 300.0 mg/kg/injection, schedule: Q01DX Z (sc), vehicle: other",100 % of control
CCCSc1ncnc2nc[nH]c12,T/C,"endpoint: median survival time, dose: 38.9 mg/kg/injection, schedule: Q01DX Z (sc), vehicle: methylcellulose (MC)",100 % of control
same,T/C,"endpoint: median survival time, dose: 64.8 mg/kg/injection, schedule: Q01DX Z (sc), vehicle: methylcellulose (MC)",100 % of control
same,T/C,"endpoint: median survival time, dose: 108.0 mg/kg/injection, schedule: Q01DX Z (sc), vehicle: methylcellulose (MC)",100 % of control
same,T/C,"endpoint: median survival time, dose: 180.0 mg/kg/injection, schedule: Q01DX Z (sc), vehicle: methylcellulose (MC)",120 % of control
same,T/C,"endpoint: median survival time, dose: 300.0 mg/kg/injection, schedule: Q01DX Z (sc), vehicle: methylcellulose (MC)",110 % of control
CC(=O)Nc1ccc2c(Nc3ccc(NS(C)(=O)=O)cc3)c3ccccc3nc2c1,T/C,"endpoint: mean survival time, dose: 1.5 mg/kg/injection, schedule: Q01DX009 (sc), vehicle: saline",114 % of control
same,T/C,"endpoint: mean survival time, dose: 3.0 mg/kg/injection, schedule: Q01DX009 (sc), vehicle: saline",111 % of control
same,T/C,"endpoint: mean survival time, dose: 6.25 mg/kg/injection, schedule: Q01DX009 (sc), vehicle: saline",121 % of control
same,T/C,"endpoint: mean survival time, dose: 12.5 mg/kg/injection, schedule: Q01DX009 (sc), vehicle: saline",182 % of control
COc1cc2c3c(c4ccc(OC)c(OC)c4c2cc1OC)CN1CCC[C@@H]1C3,T/C,[6],100 % of control
same,T/C,"endpoint: median survival time, dose: 5.0 mg/kg/injection, schedule: Q01DX Z (sc), vehicle: carboxymethylcellulose (CMC)",100 % of control
same,T/C,"endpoint: median survival time, dose: 8.4 mg/kg/injection, schedule: Q01DX Z (sc), vehicle: carboxymethylcellulose (CMC)",100 % of control
same,T/C,[7],95 % of control
same,T/C,[8],90 % of control and 105 % of control
same,T/C,"endpoint: median survival time, dose: 39.0 mg/kg/injection, schedule: Q01DX Z (sc), vehicle: carboxymethylcellulose (CMC)",100 % of control
same,T/C,"endpoint: median survival time, dose: 65.0 mg/kg/injection, schedule: Q01DX Z (sc), vehicle: carboxymethylcellulose (CMC)",110 % of control
same,T/C,"endpoint: median survival time, dose: 108.0 mg/kg/injection, schedule: Q01DX Z (sc), vehicle: carboxymethylcellulose (CMC)",105 % of control
same,T/C,"endpoint: median survival time, dose: 180.0 mg/kg/injection, schedule: Q01DX Z (sc), vehicle: carboxymethylcellulose (CMC)",115 % of control
O=C(O)CCCc1ccc(N(CCCl)CCCl)cc1,T/C,"endpoint: median survival time, dose: 8.4 mg/kg/injection, schedule: Q01DX Z (sc), vehicle: methylcellulose (MC)",100 % of control
same,T/C,"endpoint: median survival time, dose: 14.0 mg/kg/injection, schedule: Q01DX Z (sc), vehicle: methylcellulose (MC)",100 % of control
same,T/C,"endpoint: median survival time, dose: 23.0 mg/kg/injection, schedule: Q01DX Z (sc), vehicle: methylcellulose (MC)",100 % of control
same,T/C,"endpoint: median survival time, dose: 39.0 mg/kg/injection, schedule: Q01DX Z (sc), vehicle: methylcellulose (MC)",110 % of control
